This is an account of results in US10450610B2, “Single nucleotide polymorphisms (SNP) and association with resistance to immune tolerance induction” (University of Tennessee Research Foundation, priority 2008, dated 2019).

Several values for one entry are separate records, joined by “and”; a condition that tells them apart may be missing. Equal values may be shown once. Entries after “also recorded” stand apart in the source; their conditions may differ.

In test [1] the test system is mesenteric lymph node cells. The experiment in a line: Mesenteric lymph node cell proliferation with α1(II) CB peptide mixture. It counts as in vivo, mice. Particulars: FIG. 12.
For test [2], the system named is DBA/1 mice. As to the kind of experiment: Persistent NSAID effect on oral tolerance; arthritic joints after late CII immunization. It counts as in vivo. Particulars: FIG. 10. The procedure:
To determine whether chronic feeding of piroxicam with CII would have a persistent effect on tolerance induction to CII in DBA/1 mice, three groups of 10-11 DBA/1 mice were fed 8 doses of CII over two weeks (as above) on two occasions separated by 6 months: piroxicam (2.4 μg/gm) a.m. and Placebo (0.1M HAc, 100 μl) p.m.; Placebo (saline) a.m. and native bovine CII (10 μg) p.m; or piroxicam (2.4 μg/gm) a.m. and native bovine CII (10 μg) p.m. Three months after the second 8 dose feeding, each mouse was immunized (intradermally at base of tail) with 100 μg native bovine CII emulsified in complete Freund's adjuvant. Mice were placed in coded cages and scored twice weekly by a blinded observer for numbers of arthritic joints.

Test [3] concerns DBA/1 mice. The experiment in a line: NSAID inhibition of oral tolerance induction to collagen II; arthritic joints scored. It counts as in vivo. The procedure:
To determine whether tolerance induction to orally fed bovine CII in DBA/1 mice would be abrogated by orally fed NSAID, 3 groups of 20-22 DBA/1 mice were fed (by gavage) eight doses (Monday, Tuesday, Thursday, and Friday for 2 weeks) of the following: Placebo (saline) in the a.m. and Placebo (0.1 M HAc) in the p.m.; Placebo (saline) in the a.m. and 10 μg native bovine CII in the p.m.; or piroxicam (2.4 μg/gm) in the a.m. and native bovine CII (10 μg) in the p.m. After 1 week, all mice were immunized (intradermally at the base of tail) with 100 μg of bovine CII emulsified in complete Freund's adjuvant. Animals were placed in coded cages and were scored by a blinded observer twice weekly for the number of arthritic joints (joints swollen, red, and/or deformed).

Test [4] relates to spleen cells. The experiment in a line: IFNγ production by spleen cells of fed, CII-immunized mice cultured with α1(II) CB peptide mixture (ELISA). It counts as in vivo. Particulars: FIG. 8. The source says:
To assess the effect of oral feeding of piroxicam to another group of mice fed Placebo or CII on spleen cell IFNγ production in a manner similar to the experiment in FIG. 7, four groups of mice (4 mice per group) were gavaged 8 days over 2 weeks with the following: Piroxicam a.m.—CII p.m.; Piroxicam a.m.—HAc p.m.; Saline a.m.—CII p.m.; or Saline a.m.—HAc p.m. After 1 week rest, all mice were immunized at the base of the tail with a CII—complete Freund's adjuvant emulsion. After 14 days, mice ere sacrificed, and spleen cells were isolated and set up in culture with PBS or α1(II)CB peptide mixture. After 72 h culture, harvested supernatants ere analyzed for IFNγ levels by ELISA.
(In general: In an ELISA, binding on a coated surface is turned into a signal by an enzyme label.)

Test [5] concerns Peyer's patch cells. The experiment in a line: Peyer's patch cell / normal spleen cell co-culture proliferation with α1(II) CB peptide mixture (3H thymidine). The format is in vivo. Conditions: cells from mice fed piroxicam plus CII vs CII alone or piroxicam alone; p<0.03; FIG. 11. How it is done: To assess the status of the GALT in these three groups of mice, Peyer's patch cells were isolated from each animal, and set up (2.5×10^5/ml) in quadruplicate in co-culture with normal DBA/1 spleen cells (2×10^6/ml) with addition of recombinant murine IL2 (10 U/ml). PBS (as a control) or 50 μg/ml bovine α1(II) CB peptide mixture were added to quadruplicate wells in 96 round bottom well plates. After 3 days, cultures were pulsed with ^3H thymidine and harvested onto paper filters 24 h later. The “stimulation index” was calculated for each mouse by dividing the cpm of α1(II) CB peptide mixture culture by the cpm of the PBS control culture for each mouse. […] Thus, the marked increase in the stimulation index of Peyer's patch cells with DBA/1 spleen cells in the presence of α1(II) CB peptide mixture is quite exceptional and unexpected.

Test [6] is described as follows: Phase II oral CI tolerance clinical trial in SSc; change in MRSS. The format is in vivo, human. Conditions: CI treated vs placebo treated completers, Late Phase ROT1AA patients deleted; Wilcoxon Rank Sum test; FIG. 16. The source says: In the Phase II oral CI tolerance clinical trial at 12 months, 79 SSc patients were genotyped of the 168 enrolled in the clinical trial. Seven of the 23 ROT1AA genotype were in the Late Phase category, and deleted from the results.

Test [7] concerns PBMC. The experiment in a line: Oral type I collagen in SSc patients; change in IL-10 production by antigen-stimulated PBMC. The format is in vivo, human. How it is done:
Samples from 26 patients from a trial of oral type I collagen (CI) in patients with diffuse systemic sclerosis (SSc) who took 500 μg/day CI for 12 months were collected. […] No patients were on DMARDs, biologies, NSAIDS or prednisone.
Patients with ROT1 AA, GG or GA genotype had IL-10 measured of IL-PBMC cultures stimulated by α1(I) CB mixture, α2(I) CB mixture, or native CI after receiving oral CI for 12 months minus the values of IL-10 in the supernatants of PBMC cultures stimulated with the same antigens at baseline before oral CI was administered to the SSc patients.

Where [8] appears, read: group mean, Genotype AA (N = 6).
The mark [9] stands for this setting: individual SSc patients, Genotype AA, after 12 months oral CI 500 μg/day minus baseline.
[10] abbreviates: individual SSc patients, Genotype GG or GA, after 12 months oral CI 500 μg/day minus baseline.
[11] abbreviates: patients with ROT1 AA genotype, oral bovine CI 500 ug/day for 12 months.

In the case of `CN1C(C(=O)Nc2ccccn2)=C(O)c2ccccc2S1(=O)=O` [piroxicam], in test [1] (mice fed either CII or piroxicam alone), the “proliferation in response to α1(II) CB peptide mixture” value is on record as “did not proliferate”. Besides, in test [1] (mice fed piroxicam plus CII), the “stimulation by α1(II) CB peptide mixture” value was “marked stimulation”. The oral tolerance result in test [2] is “persistent abrogation of oral tolerance”. The “arthritic joints at week 7 and 8 after immunization” value in test [2] (fed piroxicam plus CII 9 and 3 months before vs Placebo plus CII, p<0.04 at 8 weeks) is “significantly more arthritic joints”. In addition, in test [3] (DBA/1 mice fed CII, FIG. 7 / similar studies (data not shown)), the “oral tolerance (OT) induction” value is reported as “abrogation of certain forms of oral tolerance”. Besides, the arthritic joints result in test [3] (piroxicam 2.4 μg/gm a.m. + CII 10 μg p.m., eight doses, FIG. 7) is “significantly more arthritic joints”. Besides, the “IFNγ production by spleen cells cultured with α1(II) CB peptide mixture” value in test [4] (fed with Placebo (alone)) is listed as “reduced production of IFNγ”. Further, the “IFNγ production by spleen cells stimulated with α1(II) CB peptide mixture” value in test [4] (piroxicam orally fed to mice being fed oral CII) is listed as “dramatic increase”. In test [5], the “stimulation by α1(II) CB peptide mixture (stimulation index)” value is recorded as “marked stimulation”.
As for type I collagen [CI], in test [6], the “change in MRSS at 12 months from baseline values” is listed as “significant difference”. The “IL-10 production change, Bovine Native CI” value was -825 ± 338 pg/mL in test [7] (setting [8]); 27 ± 97 pg/mL in test [7] (group mean, Genotype GG or GA (BB or BA)); −1726 pg/ml and +70 pg/ml and −920 pg/ml and −233 pg/ml and −1886 pg/ml and −253 pg/ml in test [7] (setting [9]); −135 pg/ml and +566 pg/ml and −334 pg/ml and +192 pg/ml (2×) and +103 pg/ml and +386 pg/ml and −1564 pg/ml and +233 pg/ml and +21 pg/ml and +237 pg/ml and +150 pg/ml and −94 pg/ml and +32 pg/ml and −282 pg/ml and +232 pg/ml and −52 pg/ml and +43 pg/ml and +269 pg/ml and +341 pg/ml in test [7] (setting [10]). For the same compound, the “IL-10 production change, Bovine α1(I) CB Mix” value was -622 ± 480 pg/mL in test [7] (setting [8]); 30 ± 119 pg/mL in test [7] (group mean, Genotype GG or GA); −342 pg/ml and −19 pg/ml and −611 pg/ml and −112 pg/ml and −2942 pg/ml and +295 pg/ml in test [7] (setting [9]); −314 pg/ml and +410 pg/ml and −104 pg/ml and −391 pg/ml and +529 pg/ml and +216 pg/ml and −968 pg/ml and +347 pg/ml and −397 pg/ml and +1364 pg/ml and +108 pg/ml and −205 pg/ml and −81 pg/ml and −561 pg/ml and +582 pg/ml and −46 pg/ml and −538 pg/ml and −227 pg/ml and +663 pg/ml and +221 pg/ml in test [7] (setting [10]). Also, the “IL-10 production change, Bovine α2(I) CB Mix” value in test [7] (setting [8]) is -975 ± 627 pg/mL; in test [7] (group mean, Genotype GG or GA) it was 22 ± 156 pg/mL; in test [7] (setting [9]), −1692 pg/ml and +28 pg/ml and −494 pg/ml and +490 pg/ml and −3736 pg/ml and −448 pg/ml; in test [7] (setting [10]) it was −388 pg/ml and +203 pg/ml and −86 pg/ml and −180 pg/ml and +859 pg/ml and +546 pg/ml and −1000 pg/ml and +261 pg/ml and −2021 pg/ml and +1460 pg/ml and +145 pg/ml and −113 pg/ml and +141 pg/ml (2×) and −509 pg/ml and +5 pg/ml and +381 pg/ml and +252 pg/ml and −115 pg/ml and −415 pg/ml. Moreover, in test [7] (setting [11]), the “IL-10 production by PBMC cultured with native bovine CI and α2(I) CB mixture” value was “did not upregulate IL-10 production; also recorded: deficient upregulation of IL-10 production”. For the same compound, the “IL-10 production by PBMC cultured with α1(I) CB mixture” value in test [7] (setting [11]) is “trend toward defective production”.
